Experimental data: US4954156A, “N,N-dihalo-2-imidazolidinones and N-halo-2-oxazolidinones as urease and nitrification inhibitors” (Tennessee Valley Authority, priority 1989, dated 1990)
Where “and” joins values, the source holds several entries; their conditions need not be identical. Equal entries are not always repeated.

Tests used:
[1] = test system: nitrification of ammonium nitrogen in soil; experiment: Soil nitrification inhibition test (Mountainview silt loam, banded); conditions: for % inhibition (nitrification) / Net mg NO2N / Net mg NO3N: 25° C, 410 mg urea + 41 mg inhibitor
Method: Embodiment 2: The N-Halamine compounds were tested for nitrification inhibition using the soil testing procedure described below.
Mountainview silt loam soil was screened through a 2 mm sieve. Plexiglas containers (8×8×6 cm) were packed half full with the soil and packed to a bulk density of 1.0 g/cm^3 and wetted to field capacity (approximately 20 weight percent moisture). The urea 410 mg per container) and inhibitor (41 mg per container) were added in a narrow band (0.5 cm wide X 6 cm long), and additional soil was added to fill the containers. The total amount of dry soil added was 384 g. The containers were incubated at 25° C. During incubation the containers were checked periodically for moisture loss and additional water added as needed to maintain moisture levels.
The individual containers were removed from the incubator at 1, 2, 3, 4, and 5 week intervals. After removal from the incubator the contents of the container were transferred to a plastic bag and thoroughly mixed. A 10-g sample of soil (dry basis) was taken from the bag and extracted with 100 ml of 2 N KCL. The extract was filtered through Whatman #41 filter paper and refrigerated until analyzed. Samples were analyzed for NO3-N- NO2-N- and urea-N using a colorimetric procedure. Some samples also were analyzed for NH4-N.
The percent nitrification inhibition was calculated according to the method of Bundy and Bremner [G. L. Bundy and J. M. Bremner, Soil Sci. Soc. Am. Proc. 37, 396-398 (1973)]
% nitrification inhibition=[(C-S)/C]×100
where C=net amount of NO3-N produced in the control (no inhibitor added), and S=net amount of NO3-N produced in the inhibitor treated sample.
^a Concentrations are in net mg/container. All containers had 384 g
soil (dry), 410 mg urea (188.6 mg N) and 41 mg inhibitor. Samples were
extracted 10 g → 100 mls 2N KCl. The formulas used for calculation
where C = net NO3N produced in control (no inhibitor), S = net
NO3N produced in inhibitor treated sample, net NO3N =
(NO3N) - (soil NO3N), and net NO2N = (NO2N) - (soil
NO2N). Values are averages of two replicate samples.

[2] = target: purified Jack Bean urease (Canavalia ensiformis, UniProt P07374); experiment: Aqueous system (pH stat) urease inhibition test; format: biochemical; conditions: 25° C
Chain of purified Jack Bean urease (P07374 whole entry, looked up): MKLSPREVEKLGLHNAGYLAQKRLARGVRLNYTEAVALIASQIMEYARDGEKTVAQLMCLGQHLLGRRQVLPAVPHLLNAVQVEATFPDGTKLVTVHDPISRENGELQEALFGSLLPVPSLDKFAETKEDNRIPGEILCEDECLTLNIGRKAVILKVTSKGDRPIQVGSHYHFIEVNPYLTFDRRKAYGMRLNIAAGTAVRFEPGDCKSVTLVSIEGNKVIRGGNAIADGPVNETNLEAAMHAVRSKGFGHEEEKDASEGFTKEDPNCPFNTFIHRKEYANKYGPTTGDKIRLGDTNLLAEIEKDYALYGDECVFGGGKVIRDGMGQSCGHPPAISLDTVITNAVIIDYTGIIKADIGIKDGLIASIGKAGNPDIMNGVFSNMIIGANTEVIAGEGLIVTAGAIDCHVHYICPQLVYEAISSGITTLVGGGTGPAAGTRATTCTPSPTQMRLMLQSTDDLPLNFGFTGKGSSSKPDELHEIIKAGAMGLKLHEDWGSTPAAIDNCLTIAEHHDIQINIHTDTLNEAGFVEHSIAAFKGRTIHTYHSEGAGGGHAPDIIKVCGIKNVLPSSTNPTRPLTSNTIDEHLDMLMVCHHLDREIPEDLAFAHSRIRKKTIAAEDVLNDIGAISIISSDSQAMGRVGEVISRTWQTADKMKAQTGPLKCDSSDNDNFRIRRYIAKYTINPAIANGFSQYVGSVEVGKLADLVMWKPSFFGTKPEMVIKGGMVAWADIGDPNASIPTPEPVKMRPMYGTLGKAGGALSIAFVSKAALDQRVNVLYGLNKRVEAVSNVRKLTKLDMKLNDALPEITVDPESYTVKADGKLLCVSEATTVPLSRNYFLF
Method: (§1) Embodiment 1: Urease activity of inhibitor test compounds may be evaluated either in aqueous or in soil systems. When aqueous systems are used, urea plus a test compound with possible urease inhibition activity and relatively pure urease enzyme are incubated together to determine the effects of the test compound on urease-catalyzed hydrolysis of urea. When soil systems are used, urea and the test compound are added to moist soil, and the urease enzyme is supplied from the soil. The main disadvantage of using soil systems is that the true activity of test compounds may be masked because of reactions between the test compound and soil. Thus, basic studies for understanding chemical structure-activity relationships are usually done in aqueous systems.
Aqueous System (pH Stat) Test Procedure: The aqueous system urease inhibition tests were conducted at 25° C using purified Jack Bean urease enzyme, 50,000-80,000 units per gram, a unit of urease will liberate 1 umole of NH3 from urea per minute at pH 7.0 at 25° C.
An appropriate amount of inhibitor [such as 37.0 uL (microliters) of a 1.169×10^(-3) M (moles/liter) inhibitor solution] and 100 uL of a solution of 13.9130 mg Jack Bean urease enzyme in 10.00 mL of water were diluted to 25.00 mL. This combined solution was allowed to sit undisturbed at 23° C. for twenty (20) minutes. Then 20.0 uL of a preservative solution was added to prevent degradation of the urease enzyme during the course of the experiment. The preservative solution contained 5.655×10^-4 moles/liter ethylenediaminetetraacetic acid (disodium salt) and 1.166×10^-3) moles/liter dithiothreitol.
Immediately after the addition of the preservative solution to the inhibitor/urease solution, 800 uL of a 0.1246 M urea solution was added and a computer assisted titrimeter was started. This titrimeter maintained a constant pH of 6.97 during the course of the experiment by neutralizing the ammonia (resulting from urease hydrolysis of urea) with 0.01142 M hydrochloric acid (HCl). The volume (measured to 0.001 mL) of HCl added was automatically recorded every 15 seconds for up to 20.0 minutes or until a total volume of 2.500 mL of HCl was added.
Experiments also were conducted without inhibitor (blank) and with the inhibitor PPDA for comparison. The experiments were replicated, and the percent inhibition for each of the inhibitors at the various concentrations was calculated as follows:
% inhibition=(kinhibitor /kblank)×100 (4)
where kinhibitor and kblank are the average rates of HCl addition for the inhibitor and blank experiments, respectively. The rates of HCl addition were calculated by linear regression of the titration curves.

[3] = test system: soil urease (urease-active Hastings silt loam soil); experiment: Banded soil system urease inhibition test (Hastings silt loam); conditions: 410 mg urea + 41 mg inhibitor
Method: as §1
Soil System Test Procedure: The soil system test procedure used was a modification of the previous procedures of other researchers L. A. Douglas and J. M. Bremner, Soil Biol. Biochem. 3, 309-315 (1971) and J. M. Bremner and R. L. Mulvaney, "Urease Activity in Soils," Soil Enzymes 5, R. G. Burns, editor, Academic Press, 149-195 (1978)]. In this modified procedure powdered mixtures of urea and test compounds were applied in narrow bands in the soil rather than being mixed throughout the soil. The banded configuration also results in concentration gradients of urea, urea hydrolysis products, test compounds, and test compound decomposition products similar to those in the immediate vicinity of urea granules containing the test compounds. Another advantage of the banded configuration compared with mixing throughout the soil is that slightly soluble test compounds can be easily band applied, whereas it is difficult to achieve a known degree of mixing of a small quantity of slightly soluble test compound with soil. The banded configuration also enables testing for urease inhibition under realistic soil conditions prior to the development of techniques for cogranulating a wide range of test compounds with urea.
A detailed description of the banded soil testing procedure follows. Urease-active soil (Hastings silt loam) was moistened to a moisture content of 20 percent dry weight basis) and preincubated at room temperature for two days. Plexiglas containers (6×6×6 cm) were half filled with soil and packed to a bulk density of 1.0 g/cm . Urea (410 mg) or urea (410 mg) plus inhibitor (41 mg, thoroughly mixed with the urea) was distributed in a narrow band about 0.5 cm wide and 6 cm long on the soil surface. The containers then were filled with soil, again packing to a bulk density of 1.0 g/cm^3. The containers were incubated at 25° C. for the desired reaction period, after which the containers were frozen to about -5° C. to stop urea hydrolysis. Immediately prior to extracting the remaining urea from the soil, said soil was allowed to thaw. Soil from each container was thoroughly mixed, and a 10-g sample was extracted with 100 ml of 2 M KCl containing phenylmercuric acetate to prevent urea hydrolysis during handling [L. A. Douglas and J. M. Bremner, Soil. Sci. Soc. Am. Proc. 34, 859-862 (1970)]. Urea in the extracts was determined colorimetrically as a measure of unhydrolyzed urea and the results expressed as percent unhydrolyzed urea-N.
^a The plexiglas containers measured 6 × 6 × 6 cm.
Hastings silt loam soil was utilized and packed to a bulk density of 1
gm/cm^3 dry basis. The soil was wet to near field capacity (20%
moisture) and 260 g of wetted soil (216 g dry soil) was added per
container. The containers were packed half full, urea and inhibitor were
added, and the remaining soil was added. The amount of urea added = 410 m

`CC1(C)N(Cl)C(=O)N(Br)C1(C)C` [ABC, 1-bromo-3-chloro-4,4,5,5-tetramethyl-2-imidazolidinone] was tested, and the “% inhibition (nitrification)” value ([1]; 1 week) was 100.0%, the “Net mg NO2N” value ([1]; 1 week) was -0.05 mg/container and the “Net mg NO3N” value ([1]; 1 week) was 0.0 mg/container. For the same compound, the “% inhibition (nitrification)” value ([1]; 2 weeks) was 100.0%, the “Net mg NO2N” value ([1]; 2 weeks) was 0.04 mg/container and the “Net mg NO3N” value ([1]; 2 weeks) was 0.0 mg/container. For the same compound, the “% inhibition (nitrification)” value ([1]; 3 weeks) was 100.0%, the “Net mg NO2N” value ([1]; 3 weeks) was 0.08 mg/container and the “Net mg NO3N” value ([1]; 3 weeks) was 0.0 mg/container. For the same compound, the “% inhibition (nitrification)” value ([1]; 4 weeks) was 100.0%, the “Net mg NO2N” value ([1]; 4 weeks) was 1.68 mg/container and the “Net mg NO3N” value ([1]; 4 weeks) was 0.0 mg/container. The “% inhibition (nitrification)” value ([1]; 5 weeks) was 99.6%, the “Net mg NO2N” value ([1]; 5 weeks) was 1.67 mg/container and the “Net mg NO3N” value ([1]; 5 weeks) was 0.8 mg/container. The “Nitrite accumulation in the soil” value ([1]; during the 5 weeks incubation, greater than with dicyandiamide) was “well within plant tolerance levels”, the percent nitrification inhibition ([1]; separate experiment (Examples VII, IX): sampled only at end of 5-week incubation, no dicyandiamide comparison) was 85.6% and the “% urease inhibition” value ([2]; inhibitor 0.432 x 10^-8 moles/experiment) was 93%. For the same compound, the “% urease inhibition” value ([2]; inhibitor 1.430 x 10^-8 moles/experiment) was 100%, the “% unhydrolyzed urea-N” value ([3]; 3 days incubation at 25° C) was 84.71% and 84.7% and the “PPM urea-N” value ([3]; 3 days incubation at 25° C) was 75.0 PPM. The “% unhydrolyzed urea-N” value ([3]; 6 days incubation at 25° C) was 53.65% and 53.7% and the “PPM urea-N” value ([3]; 6 days incubation at 25° C) was 47.5 PPM.
